Data on five compounds can be found in ChEMBL document CHEMBL1133043, “Potent inhibition of retinoic acid metabolism enzyme(s) by novel azolyl retinoids” (Bioorg Med Chem Lett, 2000).

As a reminder, the IC50 is the point on the concentration scale where inhibition reaches its midpoint.

The test system of the experiment is Cricetinae gen. sp. The experiment is described as follows: The compound was tested for the inhibition of all-trans retinoic acid (ATRA) catabolism using 7.27 pmol [11,12-3H]-ATRA as substrate in microsomal preparations of male hamster liver fortified with NADPH. Type of experiment: functional.
`COC(=O)/C=C(C)/C=C/C=C(C)/C=C/C1=C(C)C(n2cncn2)CCC1(C)C` (stereo not given) yielded an IC50 of 680 nM. With `CC1=C(/C=C/C(C)=C/C=C/C(C)=C/C(=O)O)C(C)(C)CCC1n1cnnc1` (stereo not given), the midpoint of inhibition, the IC50, lay at 1620 nM. `CC1=C(/C=C/C(C)=C/C=C/C(C)=C/C(=O)O)C(C)(C)CCC1n1ccnc1` (stereo not given) came in with an IC50 of 100 nM. On to `CC(=O)N1CCN(c2ccc(OC[C@H]3CO[C@](Cn4ccnc4)(c4ccc(Cl)cc4Cl)O3)cc2)CC1` [KETOCONAZOLE], for which half-maximal inhibition (IC50) was put at 34000 nM. The compound `CC1=C(/C=C/C(C)=C/C=C/C(C)=C/C(=O)O)C(C)(C)CCC1n1cncn1` (stereo not given) displayed an IC50 of 880 nM.
